Experimental findings from patent US20060199821A1, “Heterocyclic amides and sulfonamides” (Scios, Inc., priority 2003, published 2006) are described below.

The target in the assay is p38-α kinase (Homo sapiens, UniProt Q16539). Kind of assay: Human whole blood assay for p38 kinase inhibition, diluted (1:10) whole blood, LPS-induced TNF-α by ELISA. It counts as cell-based. The following applies: LPS-stimulated TNF-α production. The procedure: For each of the assay procedures described below, the TNF-α production correlates to the activity of p38-α kinase.
p38-α kinase, sequence (Q16539 whole entry): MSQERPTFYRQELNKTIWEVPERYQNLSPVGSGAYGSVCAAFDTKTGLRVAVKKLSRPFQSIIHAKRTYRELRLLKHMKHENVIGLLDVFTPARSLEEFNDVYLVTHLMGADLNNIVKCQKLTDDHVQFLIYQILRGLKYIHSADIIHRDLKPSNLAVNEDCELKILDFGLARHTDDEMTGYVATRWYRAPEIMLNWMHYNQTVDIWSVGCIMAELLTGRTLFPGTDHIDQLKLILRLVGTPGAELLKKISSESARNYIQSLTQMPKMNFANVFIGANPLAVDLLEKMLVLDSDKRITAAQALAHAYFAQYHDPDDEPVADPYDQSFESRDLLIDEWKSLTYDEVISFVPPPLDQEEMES
A. Human Whole Blood Assay for p38 Kinase Inhibition
Venous blood is collected from healthy male volunteers into a heparinized syringe and is used within 2 hours of collection. Test compounds are dissolved in 100% DMSO and 1 μl aliquots of drug concentrations ranging from 0 to 1 mM are dispensed into quadruplicate wells of a 24-well microtiter plate (Nunclon Delta SI, Applied Scientific, So. San Francisco, Calif.). Whole blood is added at a volume of 1 ml/well and the mixture is incubated for 15 minutes with constant shaking (Titer Plate Shaker, Lab-Line Instruments, Inc., Melrose Park, Ill.) at a humidified atmosphere of 5% CO2 at 37° C. Whole blood is cultured either undiluted or at a final dilution of 1:10 with RPMI 1640 (Gibco 31800+NaHCO3, Life Technologies, Rockville, Md. and Scios, Inc., Sunnyvale, Calif.). At the end of the incubation period, 10 μl of LPS (E. coli 0111:B4, Sigma Chemical Co., St. Louis, Mo.) is added to each well to a final concentration of 1 or 0.1 μg/ml for undiluted or 1:10 diluted whole blood, respectively. The incubation is continued for an additional 2 hours. The reaction is stopped by placing the microtiter plates in an ice bath and plasma or cell-free supernates are collected by centrifugation at 3000 rpm for 10 minutes at 4° C. The plasma samples are stored at −80° C. until assayed for TNF-α levels by ELISA, following the directions supplied by Quantikine Human TNF-α assay kit (R&D Systems, Minneapolis, Minn.).
IC50 values are calculated using the concentration of inhibitor that causes a 50% decrease as compared to a control. IC50 values can be determined with curve-fitting plots available with common software packages. Approximate IC50 values can be calculated using formula: IC50 (app)=A×i/(1−A)
where A=fractional activity and i=total inhibitor concentration.
IC50 values are calculated using the concentration of inhibitor that causes a 50% decrease as compared to a control.
On the technique in general: An ELISA detects its analyte on a solid surface through an enzyme-linked reagent.

Structures are written as SMILES. Where only a bound is given, the exact number is not on record here.

One may read the IC50 as the point on the concentration scale where inhibition reaches its midpoint.

`CCN(C(=O)c1ccc2ccccc2c1)c1ccnc(N[C@@H](C)c2ccccc2)n1` [Example 20, Naphthalene-2-carboxylic acid ethyl-[2-(1S-phenyl-ethylamino)-pyrimidin-4-yl]-amide] displayed an IC50 below 1000 nM.
On to `C[C@H](Nc1nccc(N(Cc2ccc(F)cc2)C(=O)c2ccc3ccccc3c2)n1)c1ccccc1` [Example 70], for which the IC50 was below 1000 nM.
In turn, `CC(C)N(C(=O)c1ccc2ccccc2c1)c1ccnc(N[C@@H](C)c2ccccc2)n1` [Example 73] returned an IC50 below 1000 nM.
The value for `COCCN(C(=O)c1ccc2ccccc2c1)c1ccnc(N[C@@H](C)c2ccccc2)n1` [Example 76] was below 1000 nM; that for `C[C@H](Nc1nccc(N(C)C(=O)c2ccc3ccccc3c2)n1)c1ccccc1` [Example 77] was below 1000 nM.
The value for `C[C@H](Nc1nccc(N(Cc2cccnc2)C(=O)c2ccc3ccccc3c2)n1)c1ccccc1` [Example 83] was below 1000 nM; that for `CCN(C(=O)c1ccc2c(c1)CCO2)c1ccnc(N[C@@H](C)c2ccccc2)n1` [Example 84] was below 1000 nM.
